Data published in patent US20230382904A1, “SUBSTITUTED 4-([1,2,4]TRIAZOLO[1,5-a]PYRIDIN-6-YL)THIOPHENE-2-CARBOXAMIDE DERIVATIVES AND USE THEREOF” (The Johns Hopkins University, priority 2020, published 2023).

How the values were obtained:
DLK = DLK (Homo sapiens (Human), UniProt Q12852); test: DLK biochemical assay (TR-FRET, MKK7 phosphorylation)
Procedure, shortened: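 Catalytic-domain DLK (10 nM) phosphorylates His-MKK7 (15 nM) with 60 μM ATP, 90 min at RT, in pH 7.5 HEPES buffer. Phospho-T275/S277 read by TR-FRET (Eu anti-phospho donor, XL665 anti-His acceptor) after 16 h detection, at 37° C. in 1536 or 4° C. in 384 format.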

LZK = LZK (Homo sapiens (Human), UniProt O43283); test: LZK biochemical assay (TR-FRET, MKK7 phosphorylation)
Procedure, shortened: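 Catalytic-domain LZK (10 nM) phosphorylated His-MKK7 (15 nM) with 15 μM ATP for 90 min at RT. Phospho-T275/S277 detected by Eu-anti-phospho-MKK7/XL665-anti-His TR-FRET after 16 h at 32° C, using the 665/Eu ratio. Buffer: 50 mM Hepes pH 7.5, 10 mM MgCl2, 1 mM DTT.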

DLK, sequence (Q12852 1-520): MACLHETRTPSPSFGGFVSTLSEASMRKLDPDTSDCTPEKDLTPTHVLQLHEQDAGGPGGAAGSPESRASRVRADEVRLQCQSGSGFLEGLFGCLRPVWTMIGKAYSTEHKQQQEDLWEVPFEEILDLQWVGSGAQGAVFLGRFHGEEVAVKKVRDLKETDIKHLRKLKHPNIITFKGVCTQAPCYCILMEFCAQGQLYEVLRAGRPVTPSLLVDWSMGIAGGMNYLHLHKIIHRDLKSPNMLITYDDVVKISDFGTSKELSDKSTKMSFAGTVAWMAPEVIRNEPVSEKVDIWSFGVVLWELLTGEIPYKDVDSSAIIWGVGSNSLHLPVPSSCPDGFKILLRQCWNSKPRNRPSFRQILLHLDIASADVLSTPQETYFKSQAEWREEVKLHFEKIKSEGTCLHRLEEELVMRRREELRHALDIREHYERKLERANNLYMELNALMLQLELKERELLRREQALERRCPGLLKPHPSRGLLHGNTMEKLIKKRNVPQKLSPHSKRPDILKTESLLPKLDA
LZK, sequence (O43283 168-409): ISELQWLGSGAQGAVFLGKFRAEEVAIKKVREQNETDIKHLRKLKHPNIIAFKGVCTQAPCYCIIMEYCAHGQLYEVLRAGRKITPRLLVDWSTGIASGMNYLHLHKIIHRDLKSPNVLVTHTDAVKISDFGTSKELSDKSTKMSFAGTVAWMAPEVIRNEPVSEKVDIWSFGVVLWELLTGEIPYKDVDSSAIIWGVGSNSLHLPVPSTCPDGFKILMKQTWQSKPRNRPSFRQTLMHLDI

SMILES	IC50 (DLK) [nM]	IC50 (LZK) [nM]
COc1cccc(C2(NC(=O)c3cc(-c4ccc5nc(N)nn5c4)cs3)CC2)c1 [Compound 291]	710	14000
COCCOc1cccc(CNC(=O)c2cc(-c3ccc4nc(N)nn4c3)cs2)c1 [Compound 292]	1200	19000
CC(C)c1ccccc1NC(=O)c1cc(-c2ccc3nc(N)nn3c2)cs1 [Compound 293]	260	> 30000
CC(O)c1ccccc1NC(=O)c1cc(-c2ccc3nc(N)nn3c2)cs1 (stereo not drawn) [Compound 294]	710	> 30000
Nc1nc2ccc(-c3csc(C(=O)NCc4ccc5c(c4)OCO5)c3)cn2n1 [Compound 295]	390	14000
COc1cccc(CNC(=O)c2cc(-c3cn4nc(N)nc4cc3F)cs2)c1 [Compound 296]	730	12000
Nc1nc2cc(F)c(-c3csc(C(=O)NCc4ccccc4)c3)cn2n1 [Compound 297]	710	11000
C[C@@H](NC(=O)c1cc(-c2ccc3nc(N)nn3c2)cs1)c1ccc(F)cc1 [Compound 298]	350	4200
Nc1nc2ccc(-c3csc(C(=O)NC4(c5ccc(F)cc5)CC4)c3)cn2n1 [Compound 299]	120	2500
Nc1nc2cc(F)c(-c3csc(C(=O)NCc4ccc(F)cc4)c3)cn2n1 [Compound 300]	1100	3700
CC(C)C(NC(=O)c1cc(-c2ccc3nc(N)nn3c2)cs1)c1ccc(F)cc1 (stereo not drawn) [Compound 301]	100	16500
C[C@H](NC(=O)c1cc(-c2ccc3nc(N)nn3c2)cs1)c1ccc(F)cc1 [Compound 302]	75.5	1130
CC(NC(=O)c1cc(-c2ccc3nc(N)nn3c2)cs1)c1ccc(F)cc1 (stereo not drawn) [Compound 303]	130	1800
Cc1cccc2oc(CNC(=O)c3cc(-c4ccc5nc(N)nn5c4)cs3)nc12 [Compound 304]	220	4300
Cc1sc(C(=O)NCc2ccc(F)cc2)cc1-c1ccc2nc(N)nn2c1 [Compound 305]	> 30000	> 30000
Nc1nc2ccc(-c3csc(C(=O)NC4COc5ccc(F)cc54)c3)cn2n1 (stereo not drawn) [Compound 306]	130	2500
Nc1nc2ccc(-c3csc(C(=O)NC4CCc5ccccc54)c3)cn2n1 (stereo not drawn) [Compound 307]	150	4500
CC(C)(NC(=O)c1cc(-c2ccc3nc(N)nn3c2)cs1)c1ccc(F)cc1 [Compound 308]	300	3000
Nc1nc2ccc(-c3csc(C(=O)NC4(c5ccc(F)cc5)CCC4)c3)cn2n1 [Compound 309]	120	6600
Nc1nc2ccc(-c3csc(C(=O)NC4(c5ccc(F)cc5)CCCC4)c3)cn2n1 [Compound 310]	51	17000
COc1cccc(CNC(=O)c2cc(-c3ccc4nc(N)nn4c3)c(C)s2)c1 [Compound 311]	19000	> 30000
Cc1sc(C(=O)NC2CCCCC2)cc1-c1ccc2nc(N)nn2c1 [Compound 312]	> 30000	> 30000
Cc1sc(C(=O)NCc2nc3ccccc3o2)cc1-c1ccc2nc(N)nn2c1 [Compound 313]	24000	> 30000
Nc1nc2ccc(-c3csc(C(=O)NC4(c5ccc(F)cc5)COC4)c3)cn2n1 [Compound 314]	530	7000
Nc1nc2ccc(-c3csc(C(=O)NC4CCOc5ccc(F)cc54)c3)cn2n1 (stereo not drawn) [Compound 315]	130	4800
CC1(C)CC(NC(=O)c2cc(-c3ccc4nc(N)nn4c3)cs2)c2ccccc2O1 (stereo not drawn) [Compound 316]	180	4700

SMILES	IC50 (DLK) [nM]	IC50 (LZK) [nM]
Nc1nc2ccc(-c3csc(C(=O)NC4CCOc5ccccc54)c3)cn2n1 (stereo not drawn) [Compound 317]	97	3600
Nc1nc2ccc(-c3csc(C(=O)NC4CCCc5cc(F)ccc54)c3)cn2n1 (stereo not drawn) [Compound 318]	130	1700
CC[C@H](NC(=O)c1cc(-c2ccc3nc(N)nn3c2)cs1)c1ccc(F)cc1 [Compound 319]	120	1700
Cc1sc(C(=O)NCc2ccccc2)cc1-c1ccc2nc(N)nn2c1 [Compound 320]	> 30000	> 30000
CCC[C@H](NC(=O)c1cc(-c2ccc3nc(N)nn3c2)cs1)c1ccccc1 [Compound 321]	67	3700
COC[C@H](NC(=O)c1cc(-c2ccc3nc(N)nn3c2)cs1)c1ccccc1 [Compound 322]	120	1400
C[C@H](NC(=O)c1cc(-c2ccc3nc(N)nn3c2)cs1)c1ccccc1 [Compound 323]	164	2950
CC[C@H](NC(=O)c1cc(-c2ccc3nc(N)nn3c2)cs1)c1ccccc1 [Compound 324]	62	1600
C[C@@H](NC(=O)c1cc(-c2ccc3nc(N)nn3c2)cs1)c1ccccc1 [Compound 325]	280	> 30000
Nc1nc2ccc(-c3csc(C(=O)N[C@H](c4ccccc4)C(F)(F)F)c3)cn2n1 [Compound 326]	255	> 30000
Nc1nc2ccc(-c3csc(C(=O)NC(c4ccccc4)C4CC4)c3)cn2n1 (stereo not drawn) [Compound 327]	42	6100
Nc1nc2ccc(-c3csc(C(=O)NCc4ccc(CN5CCCC5=O)cc4)c3)cn2n1 [Compound 328]	400	8200
CCN(CC)Cc1ccc(CNC(=O)c2cc(-c3ccc4nc(N)nn4c3)cs2)cc1 [Compound 329]	740	21000
CC(NC(=O)c1cc(-c2ccc3nc(N)nn3c2)cs1)c1cnn(C)c1 (stereo not drawn) [Compound 330]	640	12000
CCn1ccc(C(C)NC(=O)c2cc(-c3ccc4nc(N)nn4c3)cs2)n1 (stereo not drawn) [Compound 331]	910	13000
CC(NC(=O)c1cc(-c2ccc3nc(N)nn3c2)cs1)c1nc2c(s1)CCCC2 (stereo not drawn) [Compound 332]	150	3100
CC(NC(=O)c1cc(-c2ccc3nc(N)nn3c2)cs1)c1cn[nH]c1 (stereo not drawn) [Compound 333]	490	6800
Cc1nc(C(C)NC(=O)c2cc(-c3ccc4nc(N)nn4c3)cs2)sc1C (stereo not drawn) [Compound 334]	400	5800
CC(NC(=O)c1cc(-c2ccc3nc(N)nn3c2)cs1)c1nc2ccccc2n1C (stereo not drawn) [Compound 335]	140	3500
Nc1nc2ccc(-c3csc(C(=O)NC(c4ccc(F)cc4)C(F)(F)F)c3)cn2n1 (stereo not drawn) [Compound 336]	290	> 30000
Nc1nc2ccc(-c3csc(C(=O)NC(CO)c4ccc(F)cc4)c3)cn2n1 (stereo not drawn) [Compound 337]	480	1400
CCC(NC(=O)c1cc(-c2ccc3nc(N)nn3c2)cs1)c1ccc(F)cc1 (stereo not drawn) [Compound 338]	190	> 30000
COC[C@H](C)NC(=O)c1cc(-c2ccc3nc(N)nn3c2)cs1 [Compound 339]	2300	> 30000
Nc1nc2ccc(-c3csc(C(=O)NC4COC4)c3)cn2n1 [Compound 340]	4300	> 30000
Nc1nc2ccc(-c3csc(C(=O)N[C@@H](CCO)c4ccc(F)cc4)c3)cn2n1 [Compound 341]	230	5100
